Measured values published in patent US20200390899A1, “AMINOBENZAZEPINE COMPOUNDS, IMMUNOCONJUGATES, AND USES THEREOF” (BOLT BIOTHERAPEUTICS, INC., priority 2019, published 2020).
Like-named read-outs stand apart in the source and are kept apart here.

Key:
[1] = molecular target: T1, human TLR7 (Homo sapiens, UniProt Q9NYK1); test: HEK293 NFKB reporter assay, human TLR7; format: cell-based
T1 construct: host or cells: HEK293 reporter cells
T1 sequence (Q9NYK1 27-1049): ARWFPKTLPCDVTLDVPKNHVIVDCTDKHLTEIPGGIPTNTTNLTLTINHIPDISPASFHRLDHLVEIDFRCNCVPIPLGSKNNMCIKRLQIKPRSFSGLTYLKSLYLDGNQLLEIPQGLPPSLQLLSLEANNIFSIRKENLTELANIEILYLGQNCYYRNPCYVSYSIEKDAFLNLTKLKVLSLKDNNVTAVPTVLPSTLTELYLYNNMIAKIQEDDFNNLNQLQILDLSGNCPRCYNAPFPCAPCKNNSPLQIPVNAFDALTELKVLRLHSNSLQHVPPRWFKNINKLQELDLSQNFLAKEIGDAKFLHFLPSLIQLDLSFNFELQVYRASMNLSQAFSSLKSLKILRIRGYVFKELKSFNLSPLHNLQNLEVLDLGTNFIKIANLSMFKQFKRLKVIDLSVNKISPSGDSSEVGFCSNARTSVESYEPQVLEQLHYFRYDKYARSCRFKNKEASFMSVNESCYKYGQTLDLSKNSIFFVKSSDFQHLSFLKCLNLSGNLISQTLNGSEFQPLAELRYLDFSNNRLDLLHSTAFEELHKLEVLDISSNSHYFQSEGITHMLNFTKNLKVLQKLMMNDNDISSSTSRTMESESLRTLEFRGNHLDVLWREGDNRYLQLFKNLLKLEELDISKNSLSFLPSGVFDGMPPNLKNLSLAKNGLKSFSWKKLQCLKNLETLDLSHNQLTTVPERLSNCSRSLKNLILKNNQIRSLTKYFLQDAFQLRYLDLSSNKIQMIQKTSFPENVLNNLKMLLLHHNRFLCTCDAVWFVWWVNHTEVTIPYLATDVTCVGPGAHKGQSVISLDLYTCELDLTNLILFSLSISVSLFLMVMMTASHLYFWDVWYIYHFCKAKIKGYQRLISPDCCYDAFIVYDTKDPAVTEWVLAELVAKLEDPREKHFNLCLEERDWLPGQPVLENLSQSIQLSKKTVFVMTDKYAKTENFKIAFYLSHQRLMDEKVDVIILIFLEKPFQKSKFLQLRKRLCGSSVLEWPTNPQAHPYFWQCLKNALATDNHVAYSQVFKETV
Protocol: (§1) Each compound was synthesized and purified by the methods in the Examples provided herein, characterized by mass spectrometry, and shown to have the mass indicated. Activity against HEK293 NFKB reporter cells expressing human TLR7 or human TLR8 was measured according to Example 68.
(§2) HEK293 reporter cells expressing human TLR7 or human TLR8 were purchased from Invivogen and vendor protocols were followed for cellular propagation and experimentation. Briefly, cells were grown to 80-85% confluence at 5% CO2 in DMEM supplemented with 10% FBS, Zeocin, and Blasticidin. Cells were then seeded in 96-well flat plates at 4×10^4cells/well with substrate containing HEK detection medium and immunostimulatory molecules. Activity was measured using a plate reader at 620-655 nm wavelength.

[2] = molecular target: T2, human TLR8 (Homo sapiens, UniProt Q9NR97); test: HEK293 NFKB reporter assay, human TLR8; format: cell-based
T2 construct: host or cells: HEK293 reporter cells
T2 sequence (Q9NR97 27-1041): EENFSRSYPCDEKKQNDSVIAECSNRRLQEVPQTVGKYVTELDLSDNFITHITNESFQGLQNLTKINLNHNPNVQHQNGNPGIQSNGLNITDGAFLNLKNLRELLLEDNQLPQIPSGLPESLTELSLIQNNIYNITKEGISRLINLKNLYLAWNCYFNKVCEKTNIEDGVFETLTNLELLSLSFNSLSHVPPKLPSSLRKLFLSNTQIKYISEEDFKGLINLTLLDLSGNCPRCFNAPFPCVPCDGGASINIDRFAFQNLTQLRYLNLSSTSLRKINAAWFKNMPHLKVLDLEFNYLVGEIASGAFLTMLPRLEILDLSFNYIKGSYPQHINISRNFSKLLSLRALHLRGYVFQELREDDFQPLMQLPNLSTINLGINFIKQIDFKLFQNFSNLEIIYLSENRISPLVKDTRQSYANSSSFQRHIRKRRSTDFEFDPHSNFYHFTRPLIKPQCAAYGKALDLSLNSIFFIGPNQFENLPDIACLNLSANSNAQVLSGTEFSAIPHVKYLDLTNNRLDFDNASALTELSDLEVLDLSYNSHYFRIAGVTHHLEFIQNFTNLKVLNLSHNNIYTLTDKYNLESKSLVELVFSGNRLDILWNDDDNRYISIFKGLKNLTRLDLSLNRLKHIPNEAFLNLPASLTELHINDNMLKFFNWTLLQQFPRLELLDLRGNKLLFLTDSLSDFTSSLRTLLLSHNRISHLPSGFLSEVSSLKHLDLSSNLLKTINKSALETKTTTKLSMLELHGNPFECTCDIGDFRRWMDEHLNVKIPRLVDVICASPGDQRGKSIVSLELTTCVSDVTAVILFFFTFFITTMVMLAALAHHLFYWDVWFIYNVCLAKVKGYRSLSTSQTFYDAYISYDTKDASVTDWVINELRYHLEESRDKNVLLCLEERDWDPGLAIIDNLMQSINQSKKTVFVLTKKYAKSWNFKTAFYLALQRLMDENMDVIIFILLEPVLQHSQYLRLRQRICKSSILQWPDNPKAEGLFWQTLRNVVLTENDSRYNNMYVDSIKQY
Protocol: as §1, §2

[3] = Table 1a, HEK293 reporter cells expressing human TLR7, read-out: HEK293 hTLR7 EC50
[4] = Table 1a, HEK293 reporter cells expressing human TLR8, read-out: HEK293 hTLR8 EC50
[5] = Table 1b, HEK293 reporter cells expressing human TLR7, read-out: HEK293 hTLR7 EC50
[6] = Table 1b, HEK293 reporter cells expressing human TLR8, read-out: HEK293 hTLR8 EC50

Row | Compound | EC50 [1, 5] | EC50 [2, 6] | further results
1 | CCCN(CCCNC(=O)OCC)C(=O)C1=Cc2ccc(-c3cccc(S(=O)(=O)N4CC(CO)C4)c3)cc2N=C(N)C1 [Bz-13, ethyl N-[3-[[2-amino-8-[3-[3-(hydroxymethyl)azetidin-1-yl]sulfonylphenyl]-3H-1-benzazepine-4-carbonyl]-propyl-amino]propyl]carbamate] | – | – | EC50 [1]: 1.37 µM; EC50 [2]: 0.134 µM
2 | CCCN(CCC)C(=O)C1=Cc2c(CCCCN)cc(-c3cccc(S(=O)(=O)N4CC(CO)C4)c3)cc2N=C(N)C1 [Bz-14, 2-Amino-6-(4-aminobutyl)-8-(3-((3-(hydroxymethyl)azetidin-1-yl)sulfonyl)phenyl)-N,N-dipropyl-3H-benzo[b]azepine-4-carboxamide] | – | – | EC50 [1, 3]: > 9 µM; EC50 [2, 4]: 1.7 µM
3 | CCCN(CCC)C(=O)C1=Cc2ccc(-c3cccc(S(=O)(=O)N4CC(CN)C4)c3)cc2N=C(N)C1 [Bz-15, 2-amino-8-[3-[3-(aminomethyl)azetidin-1-yl]sulfonylphenyl]-N,N-dipropyl-3H-1-benzazepine-4-carboxamide] | – | – | EC50 [1, 3]: > 9 µM; EC50 [2, 4]: 0.103 µM
4 | CCCN(CCCNC(=O)OC(C)(C)C)C(=O)C1=Cc2ccc(C(=O)Nc3ccc(N4CCC(C(=O)NCCNC(C)=O)CC4)nc3)cc2N=C(N)C1 [Bz-16, tert-butyl (3-(8-((6-(4-((2-acetamidoethyl)carbamoyl)piperidin-1-yl)pyridin-3-yl)carbamoyl)-2-amino-N-propyl-3H-benzo[b]azepine-4-carboxamido)propyl)carbamate] | – | – | EC50 [1, 3]: > 9 µM; EC50 [2, 4]: 1.05 µM
5 | CCCN(CCCN)C(=O)C1=Cc2ccc(-c3cccc(S(=O)(=O)N4CC(CO)C4)c3)cc2N=C(N)C1 [Bz-17, 2-amino-N-(3-aminopropyl)-8-[3-[3-(hydroxymethyl)azetidin-1-yl]sulfonylphenyl]-N-propyl-3H-1-benzazepine-4-carboxamide] | > 9 µM | > 9 µM | –
6 | CCCN(CCCOCCCN)C(=O)C1=Cc2ccc(-c3cccc(S(=O)(=O)N4CC(CO)C4)c3)cc2N=C(N)C1 [Bz-18, 2-amino-N-(3-(3-aminopropoxy)propyl)-8-(3-((3-(hydroxymethyl)azetidin-1-yl)sulfonyl)phenyl)-N-propyl-3H-benzo[b]azepine-4-carboxamide] | 1.99 µM | 3.4 µM | –
7 | CCCN(CCCNC(=O)CC(C)(C)C)C(=O)C1=Cc2ccc(-c3cccc(S(=O)(=O)N4CC(CO)C4)c3)cc2N=C(N)C1 [Bz-19, 2-amino-N-(3-(3,3-dimethylbutanamido)propyl)-8-(3-((3-(hydroxymethyl)azetidin-1-yl)sulfonyl)phenyl)-N-propyl-3H-benzo[b]azepine-4-carboxamide] | 1.07 µM | 3.17 µM | –
8 | CCCN(CCCCCN)C(=O)C1=Cc2ccc(-c3cccc(S(=O)(=O)N4CC(CO)C4)c3)cc2N=C(N)C1 [Bz-20, 2-amino-N-(5-aminopentyl)-8-(3-((3-(hydroxymethyl)azetidin-1-yl)sulfonyl)phenyl)-N-propyl-3H-benzo[b]azepine-4-carboxamide] | > 9 µM | > 9 µM | –
9 | CCCN(CCCOCCOCCN)C(=O)C1=Cc2ccc(-c3cccc(S(=O)(=O)N4CC(CO)C4)c3)cc2N=C(N)C1 [Bz-21, 2-amino-N-(3-(2-(2-aminoethoxy)ethoxy)propyl)-8-(3-((3-(hydroxymethyl)azetidin-1-yl)sulfonyl)phenyl)-N-propyl-3H-benzo[b]azepine-4-carboxamide] | > 9 µM | > 9 µM | –
10 | CCCN(C/C=C/CN)C(=O)C1=Cc2ccc(-c3cccc(S(=O)(=O)N4CC(CO)C4)c3)cc2N=C(N)C1 [Bz-22, 2-amino-N-[(E)-4-aminobut-2-enyl]-8-[3-[3-(hydroxymethyl)azetidin-1-yl]sulfonylphenyl]-N-propyl-3H-1-benzazepine-4-carboxamide] | > 9 µM | > 9 µM | –
11 | CCCN(CCCNc1ncccn1)C(=O)C1=Cc2ccc(-c3cccc(S(=O)(=O)N4CC(CO)C4)c3)cc2N=C(N)C1 [Bz-23, 2-amino-8-[3-[3-(hydroxymethyl)azetidin-1-yl]sulfonylphenyl]-N-propyl-N-[3-(pyrimidin-2-ylamino)propyl]-3H-1-benzazepine-4-carboxamide] | 2.43 µM | 1.16 µM | –
12 | CCCN(CCCCN)C(=O)C1=Cc2ccc(-c3cccc(S(=O)(=O)N4CC(CO)C4)c3)cc2N=C(N)C1 [Bz-24, 2-amino-N-(4-aminobutyl)-8-[3-[3-(hydroxymethyl)azetidin-1-yl]sulfonylphenyl]-N-propyl-3H-1-benzazepine-4-carboxamide] | > 9 µM | > 9 µM | –
13 | CCCN(CCc1ccc(OC)cc1)C(=O)C1=Cc2ccc(-c3cccc(S(=O)(=O)N4CC(CO)C4)c3)cc2N=C(N)C1 [Bz-25, 2-amino-8-[3-[3-(hydroxymethyl)azetidin-1-yl]sulfonylphenyl]-N-[2-(4-methoxyphenyl)ethyl]-N-propyl-3H-1-benzazepine-4-carboxamide] | > 9 µM | 1.4 µM | –
14 | CCCN(CC#CCNC(=O)OC(C)(C)C)C(=O)C1=Cc2ccc(-c3cccc(S(=O)(=O)N4CC(CO)C4)c3)cc2N=C(N)C1 [Bz-26, tert-butyl N-[4-[[2-amino-8-[3-[3-(hydroxymethyl)azetidin-1-yl]sulfonylphenyl]-3H-1-benzazepine-4-carbonyl]-propyl-amino]but-2-ynyl]carbamate] | > 9 µM | 0.318 µM | –
15 | CCCN(Cc1ccc(CN)cc1)C(=O)C1=Cc2ccc(-c3cccc(S(=O)(=O)N4CC(CO)C4)c3)cc2N=C(N)C1 [Bz-27, 2-Amino-N-(4-(aminomethyl)benzyl)-8-(3-((3-(hydroxymethyl)azetidin-1-yl)sulfonyl)phenyl)-N-propyl-3H-benzo[b]azepine-4-carboxamide] | > 9 µM | 0.138 µM | –
16 | CCCN(CC#CCNC(=O)OC(C)(C)C)C(=O)C1=Cc2ccc(-c3cccc(S(=O)(=O)N4CC(CN(C)C)C4)c3)cc2N=C(N)C1 [Bz-28, tert-butyl N-[4-[[2-amino-8-[3-[3-[(dimethylamino)methyl]azetidin-1-yl]sulfonylphenyl]-3H-1-benzazepine-4-carbonyl]-propyl-amino]but-2-ynyl]carbamate] | 4.25 µM | 0.0428 µM | –
17 | CCCN(OCC)C(=O)C1=Cc2ccc(-c3cccc(S(=O)(=O)N4CC(CO)C4)c3)cc2N=C(N)C1 [Bz-29, 2-amino-N-ethoxy-8-[3-[3-(hydroxylmethyl)azetidin-1-yl]sulfonylphenyl]-N-propyl-3H-1-benzazepine-4-carboxamide] | > 9 µM | 0.032 µM | –
